{"source": "paper PMC6246607", "about": "“Novel AR-12 derivatives, P12-23 and P12-34, inhibit flavivirus replication by blocking host de novo pyrimidine biosynthesis” (Emerging Microbes & Infections, 2018)", "key": {"JEV-eGFP": {"system": "JEV-eGFP", "experiment": "microbe, parasite or virus in culture", "type": "cell-based, Japanese encephalitis virus", "protocol": "(§1) Approximately 50% of confluent cells seeded in 96-well plates were infected with viruses in the presence of drugs or DMSO as a solvent control. At 24 h post-infection (hpi), cells were fixed with 4% paraformaldehyde at room temperature (RT) for 20 min, permeated with a 0.5% Triton X-100 buffer for 2 min, and blocked with 3% BSA for 30 min. Nuclei were stained with DAPI (Sigma) at RT for 20 min. Viral NS3 was stained with a mouse anti-NS3 monoclonal antibody (mAb)[47] followed by staining with an Alexa Fluor 488-conjugated goat anti-mouse IgG antibody (ThermoFisher) at RT for 1 h. Nine images from different fields per well were acquired and analyzed using an ImageXpress Micro XLS Widefield High-Content Analysis System (Molecular Devices, Sunnyvale, USA). To quantify viral infection, the fluorescence intensities of viral NS3 or eGFP from the reporter virus were measured using MetaXpress® (Molecular Devices, Sunnyvale, USA) and were calculated with a mock control (infection as 0%) and a DMSO solvent control (infection as 100%)."}, "DENV-2 [1]": {"system": "DENV-2", "experiment": "High-content image analysis of DENV-2 infection (NS3) in A549 cells", "type": "cell-based, dengue virus", "protocol": "as §1"}, "DENV-2 [2]": {"system": "DENV-2", "experiment": "Viral entry assay", "type": "cell-based, dengue virus", "conditions": "1 µM, A549 cells, DENV-2 MOI 5", "protocol": "A549 cells pretreated with P12-23 (1 µM), P12-34 (1 µM) or Pitstop®2 (5 µM) at 37 ℃ for 1 h were absorbed with DENV-2 (MOI 5) at 4 °C for 1 h. After removing the unbound viruses, cells were shifted to 37 ℃ for 30 min for viral entry. The cell surface-associated viruses were then removed by treatment with trypsin-EDTA (ThermoFisher) at 37 °C for 10 min. Viral entry indicated by E protein positivity was determined using a BD FACSCalibur Flow Cytometer (BD) after immunofluorescent staining with an anti-E mAb[47]."}, "DENV-2 [3]": {"system": "DENV-2", "experiment": "Viral translation assay (NS3 western blot)", "type": "cell-based, dengue virus", "conditions": "1 µM added at 1 hpi, A549 cells, DENV-2 MOI 20", "protocol": "A549 cells absorbed with DENV-2 (MOI 20) at 4 °C for 1 h were washed to remove unbound viruses. After incubating at 37 °C for 1 h to allow viral entry, cells were treated with P12-23 (1 µM), P12-34 (1 µM) or 2′-c-methyladenosine (20 µM). Cells were harvested at 2, 3, 4, and 6 hpi for western blot analysis as previously described[46] with an anti-NS3 mAb[47] and an anti-actin mAb (NB600-501; Novus Biologicals, Littleton, CO, USA). Protein expression levels were quantified using ImageJ."}, "cytochrome bc1 complex": {"molecular_target": "T1, cytochrome bc1 complex (Homo sapiens, UniProt P00156+P22695+P31930)", "T1 construct": "endogenous in cells; host or cells: A549 cell lysate", "experiment": "BP12-34 pull-down, cytochrome bc1 complex", "type": "binding", "conditions": "BP12-34 0.25 or 0.5 µM pull-down, A549 cell lysates", "protocol": "Supplementary figure 4. P12-34 interacts with cytochrome bc1 complex. Cell lysates of A549 were treated with 0.25 μM (+) or 0.5 μM (++) BP12-34 at 4 ℃ for 1 h, then incubated with streptavidin (SA) beads at 4 ℃ for 30 min. Non-specific binding was removed by washing with PBS. After precipitation, P12-34-associated proteins were analyzed by western blot with the indicated antibodies against DHODH and cytochrome bc1 complex."}, "[4]": {"system": "DENV-2 (mouse-adaptive NGC strain)", "experiment": "DENV challenge of Stat1-/- mice", "type": "in vivo", "protocol": "Animal studies followed the guidelines of the Academia Sinica Institutional Animal Care and Use Committee. Five-week-old Stat1^−/− mice were subcutaneously challenged with 1 × 10^5 plaque-forming units (PFU) of DENV-2 (mouse-adaptive NGC strain)[29]. P12-34 (2.5 mg/kg per day in 500 µl PBS containing 10% DMSO) or vehicle control was intraperitoneally injected into DENV-2-infected mice for the first 6 days. At 1, 3, 5 and 7 days post-inoculation (dpi), the viral loads in sera were determined by RT-qPCR as previously described."}}}
{"smiles": "N[C@@H](Cc1ccccc1)C(=O)Nc1ccc(-n2cc(C(F)(F)F)cc2-c2ccc3c(ccc4ccccc43)c2)cc1", "note": "[P12-34]", "values": [{"measurement": "relative potency versus AR-12 (fold)", "setting": "JEV-eGFP; JEV, A549 cells", "value": "~ 10 fold"}, {"measurement": "SI (CC50/IC50)", "setting": "JEV-eGFP; JEV-eGFP, A549 cells", "value": "360.3 ± 3.1"}, {"measurement": "IC50", "setting": "JEV-eGFP; Japanese encephalitis virus, A549, 24 h", "value": "56.1 ± 0.5", "unit": "nM"}, {"measurement": "suppression of JEV replication with uridine supplement", "setting": "JEV-eGFP; P12-34 1 µM, uridine 50 µg/ml, A549 cells", "value": "this effect of uridine was also noted"}, {"measurement": "SI (CC50/IC50)", "setting": "DENV-2 [1]; DENV-2, A549 cells", "value": "326.5 ± 26.4"}, {"measurement": "IC50", "setting": "DENV-2 [1]; Dengue virus, DENV2, A549, 24 h", "value": "62.2 ± 4.9", "unit": "nM"}, {"measurement": "effect on viral entry", "setting": "DENV-2 [2]", "value": "no suppressive effect"}, {"measurement": "effect on NS3 levels at early stage of infection (viral translation)", "setting": "DENV-2 [3]", "value": "did not reduce NS3 levels until 4~6 h post-infection"}, {"measurement": "binding to cytochrome bc1 complex", "setting": "cytochrome bc1 complex", "value": "bind cytochrome bc1 complex in a dose-dependent manner"}, {"measurement": "mice alive at 39 dpi", "setting": "[4]; Stat1-/- mice, subcutaneous DENV-2 challenge, 2.5 mg/kg per day i.p. for first 6 days, n = 5", "value": 60, "unit": "%"}, {"measurement": "viral genome copy numbers in sera", "setting": "[4]; Stat1-/- mice, subcutaneous DENV-2 challenge, 2.5 mg/kg per day i.p., especially at 3 dpi", "value": "significantly reduced"}, {"measurement": "protection against DENV challenge injected intraperitoneally", "setting": "[4]; virus injected intraperitoneally, data not shown", "value": "did not protect mice"}]}
